# Test results published in ChEMBL document CHEMBL5291721, “A preclinical secondary pharmacology resource illuminates target-adverse drug reaction associations of marketed drugs” (Nat Commun, 2023).
# Legend:
# Androgen receptor = target: T1, Androgen receptor (Homo sapiens, UniProt P10275)
# T1 sequence (P10275 whole entry): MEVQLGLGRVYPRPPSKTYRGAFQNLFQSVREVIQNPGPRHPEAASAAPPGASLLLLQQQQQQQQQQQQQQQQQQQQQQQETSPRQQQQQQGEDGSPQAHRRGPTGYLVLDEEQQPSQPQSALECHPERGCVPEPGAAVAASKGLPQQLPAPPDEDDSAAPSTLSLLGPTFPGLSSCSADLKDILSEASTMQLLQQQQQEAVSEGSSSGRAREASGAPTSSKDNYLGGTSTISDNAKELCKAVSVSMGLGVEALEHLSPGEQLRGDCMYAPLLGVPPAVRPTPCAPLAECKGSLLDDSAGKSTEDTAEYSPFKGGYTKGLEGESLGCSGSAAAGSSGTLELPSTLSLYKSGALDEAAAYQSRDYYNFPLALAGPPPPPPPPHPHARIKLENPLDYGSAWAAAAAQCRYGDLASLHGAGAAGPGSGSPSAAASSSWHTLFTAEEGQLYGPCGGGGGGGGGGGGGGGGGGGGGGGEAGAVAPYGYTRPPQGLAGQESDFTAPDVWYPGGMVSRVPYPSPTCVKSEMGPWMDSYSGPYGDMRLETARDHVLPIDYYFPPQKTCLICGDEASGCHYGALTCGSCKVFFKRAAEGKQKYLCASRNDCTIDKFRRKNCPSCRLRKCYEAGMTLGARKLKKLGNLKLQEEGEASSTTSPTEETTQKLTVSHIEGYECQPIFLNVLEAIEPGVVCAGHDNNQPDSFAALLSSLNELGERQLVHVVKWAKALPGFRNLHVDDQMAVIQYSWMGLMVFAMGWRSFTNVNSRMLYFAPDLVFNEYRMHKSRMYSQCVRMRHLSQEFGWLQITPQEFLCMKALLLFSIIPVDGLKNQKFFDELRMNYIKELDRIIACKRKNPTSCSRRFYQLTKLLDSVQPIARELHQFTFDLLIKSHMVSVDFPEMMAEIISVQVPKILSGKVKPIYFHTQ
# Adenosine receptor A1 = target: T2, Adenosine receptor A1 (Homo sapiens, UniProt P30542)
# T2 sequence (P30542 whole entry): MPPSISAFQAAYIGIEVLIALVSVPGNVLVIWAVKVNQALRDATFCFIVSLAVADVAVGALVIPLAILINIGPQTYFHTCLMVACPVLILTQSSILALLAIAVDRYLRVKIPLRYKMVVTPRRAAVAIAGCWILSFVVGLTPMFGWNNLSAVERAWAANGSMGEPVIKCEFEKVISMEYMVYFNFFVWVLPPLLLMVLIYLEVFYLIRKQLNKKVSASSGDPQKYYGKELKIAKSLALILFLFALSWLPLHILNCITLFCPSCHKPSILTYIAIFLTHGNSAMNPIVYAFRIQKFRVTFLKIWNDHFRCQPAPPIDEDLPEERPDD
# [1] = target: T3, Alpha-1A adrenergic receptor (Homo sapiens, UniProt P35348)
# T3 sequence (P35348 whole entry): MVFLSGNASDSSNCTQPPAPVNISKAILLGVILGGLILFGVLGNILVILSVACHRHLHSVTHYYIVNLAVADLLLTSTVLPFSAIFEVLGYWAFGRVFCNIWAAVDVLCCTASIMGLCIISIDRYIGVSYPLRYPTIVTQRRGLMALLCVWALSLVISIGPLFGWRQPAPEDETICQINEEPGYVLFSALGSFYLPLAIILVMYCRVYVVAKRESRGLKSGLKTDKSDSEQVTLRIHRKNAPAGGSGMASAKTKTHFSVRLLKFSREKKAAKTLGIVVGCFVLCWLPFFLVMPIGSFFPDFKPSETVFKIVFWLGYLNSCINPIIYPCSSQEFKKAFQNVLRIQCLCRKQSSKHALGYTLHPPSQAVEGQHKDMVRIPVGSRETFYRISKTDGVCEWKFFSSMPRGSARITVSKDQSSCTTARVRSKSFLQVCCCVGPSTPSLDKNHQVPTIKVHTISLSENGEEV
# [2] = target: T4, Gamma-aminobutyric acid receptor subunit alpha-1/alpha-2/beta-2/gamma-2 (Homo sapiens, UniProt P14867+P18507+P47869+P47870); type: protein-complex assay
# Estrogen receptor = target: T5, Estrogen receptor (Homo sapiens, UniProt P03372)
# T5 sequence (P03372 whole entry): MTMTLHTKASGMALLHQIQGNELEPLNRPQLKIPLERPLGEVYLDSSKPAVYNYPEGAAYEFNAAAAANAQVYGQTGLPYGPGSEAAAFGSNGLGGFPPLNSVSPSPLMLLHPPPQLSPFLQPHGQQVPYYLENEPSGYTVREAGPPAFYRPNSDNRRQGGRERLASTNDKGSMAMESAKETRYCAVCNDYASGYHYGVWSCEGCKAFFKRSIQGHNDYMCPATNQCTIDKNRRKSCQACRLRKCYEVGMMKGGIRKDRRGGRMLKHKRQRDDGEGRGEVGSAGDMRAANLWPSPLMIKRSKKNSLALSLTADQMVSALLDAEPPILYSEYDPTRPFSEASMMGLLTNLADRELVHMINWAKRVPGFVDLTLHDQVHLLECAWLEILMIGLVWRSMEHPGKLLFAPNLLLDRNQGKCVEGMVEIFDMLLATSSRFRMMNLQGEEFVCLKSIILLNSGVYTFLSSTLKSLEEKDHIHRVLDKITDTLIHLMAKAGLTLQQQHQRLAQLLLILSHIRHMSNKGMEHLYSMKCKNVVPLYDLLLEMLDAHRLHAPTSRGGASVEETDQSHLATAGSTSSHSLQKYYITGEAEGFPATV
# [3] = target: T4, Gamma-aminobutyric acid receptor subunit alpha-1/alpha-2/beta-2/gamma-2; type: functional, cell-based
# Further: assay procedure not described here.
# T4 sequence (P14867 whole entry): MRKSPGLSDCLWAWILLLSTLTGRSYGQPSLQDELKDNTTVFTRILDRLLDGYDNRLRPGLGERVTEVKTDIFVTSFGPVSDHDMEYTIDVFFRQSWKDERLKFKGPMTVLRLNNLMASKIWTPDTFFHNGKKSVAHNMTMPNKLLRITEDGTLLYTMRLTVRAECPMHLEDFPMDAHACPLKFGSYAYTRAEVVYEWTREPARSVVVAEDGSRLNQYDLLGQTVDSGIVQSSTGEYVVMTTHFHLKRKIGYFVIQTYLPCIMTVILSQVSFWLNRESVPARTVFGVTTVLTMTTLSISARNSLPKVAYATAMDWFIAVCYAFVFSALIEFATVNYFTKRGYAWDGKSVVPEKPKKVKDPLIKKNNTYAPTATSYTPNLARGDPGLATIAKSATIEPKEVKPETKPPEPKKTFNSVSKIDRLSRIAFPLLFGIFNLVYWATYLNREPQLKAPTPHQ
# T4 sequence (P47870 whole entry): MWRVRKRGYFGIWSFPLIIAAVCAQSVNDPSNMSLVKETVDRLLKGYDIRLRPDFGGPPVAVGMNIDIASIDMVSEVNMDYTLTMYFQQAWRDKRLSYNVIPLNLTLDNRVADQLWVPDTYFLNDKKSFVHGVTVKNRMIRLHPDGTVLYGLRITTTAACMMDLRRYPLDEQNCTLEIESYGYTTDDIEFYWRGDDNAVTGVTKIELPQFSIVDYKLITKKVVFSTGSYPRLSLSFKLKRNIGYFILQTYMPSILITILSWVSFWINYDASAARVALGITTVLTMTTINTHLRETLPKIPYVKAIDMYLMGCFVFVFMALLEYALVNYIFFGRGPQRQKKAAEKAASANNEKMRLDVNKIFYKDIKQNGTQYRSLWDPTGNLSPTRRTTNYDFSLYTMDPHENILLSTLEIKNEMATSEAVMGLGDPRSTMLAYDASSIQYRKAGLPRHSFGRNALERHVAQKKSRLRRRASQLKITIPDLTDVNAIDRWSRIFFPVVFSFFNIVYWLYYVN
# T4 sequence (P18507 whole entry): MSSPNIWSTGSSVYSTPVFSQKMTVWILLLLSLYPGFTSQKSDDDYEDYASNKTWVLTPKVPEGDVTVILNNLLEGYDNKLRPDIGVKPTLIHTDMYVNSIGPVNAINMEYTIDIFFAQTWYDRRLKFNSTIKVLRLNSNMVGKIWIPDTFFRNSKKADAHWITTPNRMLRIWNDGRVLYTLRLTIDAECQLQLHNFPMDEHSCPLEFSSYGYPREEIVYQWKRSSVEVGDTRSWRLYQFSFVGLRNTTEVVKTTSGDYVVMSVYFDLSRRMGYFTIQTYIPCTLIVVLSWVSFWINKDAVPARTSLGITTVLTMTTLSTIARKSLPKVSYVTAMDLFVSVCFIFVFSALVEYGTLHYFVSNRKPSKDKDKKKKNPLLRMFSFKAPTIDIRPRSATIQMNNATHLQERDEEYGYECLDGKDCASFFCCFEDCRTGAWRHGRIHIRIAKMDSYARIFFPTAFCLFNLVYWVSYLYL
# T4 sequence (P47869 whole entry): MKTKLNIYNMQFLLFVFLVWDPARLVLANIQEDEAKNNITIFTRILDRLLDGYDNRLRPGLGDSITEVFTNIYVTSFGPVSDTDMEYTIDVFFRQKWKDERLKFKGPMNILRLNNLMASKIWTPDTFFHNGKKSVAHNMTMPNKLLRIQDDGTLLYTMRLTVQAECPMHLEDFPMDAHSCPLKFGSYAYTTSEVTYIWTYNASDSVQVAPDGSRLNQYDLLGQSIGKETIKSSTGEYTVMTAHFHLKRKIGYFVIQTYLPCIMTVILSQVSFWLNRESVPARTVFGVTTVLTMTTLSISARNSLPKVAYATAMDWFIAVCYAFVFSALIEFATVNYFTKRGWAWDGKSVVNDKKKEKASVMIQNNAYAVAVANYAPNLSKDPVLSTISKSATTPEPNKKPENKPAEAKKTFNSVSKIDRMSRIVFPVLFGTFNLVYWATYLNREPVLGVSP
smiles,measurement,setting,value
C[C@@H](CN1CC(=O)NC(=O)C1)N1CC(=O)NC(=O)C1 [DEXRAZOXANE],AC50,Androgen receptor,> 30 µM
O=c1[nH]cc(F)c(=O)[nH]1 [FLUOROURACIL],AC50,Adenosine receptor A1,> 30 µM
CCN(CCO)CCCC(C)Nc1ccnc2cc(Cl)ccc12 (stereo not given) [HYDROXYCHLOROQUINE],AC50,[1],> 10 µM
Cc1ccc(C(C)C)c(O)c1 [THYMOL],AC50,[2],> 30 µM
OC[C@H]1NC[C@H](O)[C@@H](O)[C@H]1O,AC50,Adenosine receptor A1,> 30 µM
same,AC50,Androgen receptor,> 30 µM
CNC1(c2ccccc2Cl)CCCCC1=O (stereo not given) [KETAMINE],AC50,[2],> 30 µM
CCN(CC)CCn1c(=O)c(Cc2ccc(OC)cc2)nc2ccccc21 [CAROVERINE],AC50,[1],8.9 µM
same,AC50,Estrogen receptor,> 30 µM
CS(=O)(=O)Nc1ccc([N+](=O)[O-])cc1Oc1ccccc1 [NIMESULIDE],AC50,[2],> 30 µM
same,AC50,[3],> 30 µM
CN1CCN(C(c2ccccc2)c2ccc(Cl)cc2)CC1 (stereo not given) [CHLORCYCLIZINE],AC50,[2],> 30 µM
N[C@@H](Cc1cc(I)c(Oc2cc(I)c(O)c(I)c2)c(I)c1)C(=O)O [LEVOTHYROXINE],AC50,[3],> 30 µM
NCCCNCCSP(=O)(O)O [AMIFOSTINE],AC50,Estrogen receptor,> 30 µM
O=P1(N(CCCl)CCCl)NCCCO1 (stereo not given) [CYCLOPHOSPHAMIDE ANHYDROUS],AC50,[2],> 30 µM
CN(C)CCc1c[nH]c2ccc(CS(=O)(=O)N3CCCC3)cc12 [ALMOTRIPTAN],AC50,Estrogen receptor,> 30 µM
same,AC50,[3],> 30 µM
NCCCCCC(=O)O [AMINOCAPROIC ACID],AC50,[1],> 10 µM
same,AC50,Estrogen receptor,> 10 µM
O=C(O)[C@H](O)[C@@H](O)[C@H](O)[C@H](O)CO [GLUCONIC ACID],AC50,[2],> 30 µM
CC#CC(=O)N1CCC[C@H]1c1nc(-c2ccc(C(=O)Nc3ccccn3)cc2)c2c(N)nccn12 [ACALABRUTINIB],AC50,[2],> 30 µM
same,AC50,Adenosine receptor A1,> 30 µM
same,AC50,Androgen receptor,> 30 µM
C=CC1=C(C(=O)O)N2C(=O)[C@@H](NC(=O)/C(=N\O)c3csc(N)n3)[C@H]2SC1,AC50,[1],> 10 µM
same,AC50,Estrogen receptor,> 30 µM
CCCCCCCCCCCCCCCC(=O)OC[C@H](COP(=O)([O-])OCC[N+](C)(C)C)OC(=O)CCCCCCCCCCCCCCC [COLFOSCERIL PALMITATE],AC50,Adenosine receptor A1,> 30 µM
same,AC50,Androgen receptor,> 30 µM
CC[N+](CC)(CCNC(=O)C(=O)NCC[N+](CC)(CC)Cc1ccccc1Cl)Cc1ccccc1Cl [AMBENONIUM],AC50,Estrogen receptor,> 30 µM
C[C@]12CCC(=O)C=C1CC[C@H]1[C@@H]3CC[C@](O)(C(=O)CO)[C@@]3(C)C[C@H](O)[C@@]12F [FLUDROCORTISONE],AC50,[1],> 10 µM
same,AC50,Estrogen receptor,> 30 µM
CN(C)CCN(Cc1ccccc1)c1ccccn1 [TRIPELENNAMINE],AC50,[1],10.8 µM
same,AC50,Estrogen receptor,> 10 µM
CN(C)CCOC(c1ccc(Cl)cc1)c1ccccn1 (stereo not given) [CARBINOXAMINE],AC50,Estrogen receptor,> 30 µM
same,AC50,[3],> 30 µM
NC(=O)C1(N2CCCCC2)CCN(CCCN2c3ccccc3CCc3ccccc32)CC1 [CARPIPRAMINE],AC50,[2],> 30 µM
same,AC50,Androgen receptor,> 30 µM
C[C@H](CS)C(=O)N1CCC[C@H]1C(=O)O [CAPTOPRIL],AC50,[1],> 10 µM
CC(C)NC[C@H](O)COc1ccc(O)cc1 [PRENALTEROL],AC50,[2],> 30 µM
same,AC50,Androgen receptor,> 30 µM
CCC1(c2ccccc2)C(=O)NCNC1=O [PRIMIDONE],AC50,[1],> 10 µM
O=C(O)[C@@H](S)[C@@H](S)C(=O)O,AC50,Adenosine receptor A1,> 30 µM
COc1cccc2c1C(=O)c1c(O)c3c(c(O)c1C2=O)C[C@@](O)(C(=O)CO)C[C@@H]3O[C@H]1C[C@H](N)[C@H](O[C@@H]2CCCCO2)[C@H](C)O1 [PIRARUBICIN],AC50,Adenosine receptor A1,> 30 µM
same,AC50,Androgen receptor,> 30 µM
NC(=O)C1(N2CCCCC2)CCN(CCCC(=O)c2ccc(F)cc2)CC1 [PIPAMPERONE],AC50,[2],> 30 µM
CCOC(=O)Nc1ccc(NCc2ccc(F)cc2)nc1N [FLUPIRTINE],AC50,Estrogen receptor,3 µM
C[C@H](Cn1cnc2c(N)ncnc21)OCP(=O)(O)O [TENOFOVIR ANHYDROUS],AC50,Estrogen receptor,> 30 µM
C[C@]12CC[C@@H]3c4ccc(OC(=O)N(CCCl)CCCl)cc4CC[C@H]3[C@@H]1CC[C@@H]2OP(=O)(O)O [ESTRAMUSTINE PHOSPHATE],AC50,Androgen receptor,> 30 µM
O=C(O)COC(=O)Cc1ccccc1Nc1c(Cl)cccc1Cl [ACECLOFENAC],AC50,[1],> 10 µM
same,AC50,Estrogen receptor,> 30 µM
CC(C)C[C@H](NC(=O)[C@H](Cc1ccccc1)NC(=O)c1cnccn1)B(O)O [BORTEZOMIB],AC50,[1],> 30 µM
same,AC50,Estrogen receptor,> 30 µM
CC(C)/N=c1\cc2n(-c3ccc(Cl)cc3)c3ccccc3nc-2cc1Nc1ccc(Cl)cc1 [CLOFAZIMINE],AC50,Estrogen receptor,0.13 µM
CC1=C(C/C=C(\C)CCC[C@H](C)CCC[C@H](C)CCCC(C)C)C(=O)c2ccccc2C1=O [PHYTONADIONE],AC50,[2],> 30 µM
CCCCCCO[C@@H](C)c1cccc(-c2csc(NC(=O)c3cc(Cl)c(/C=C(\C)C(=O)O)c(Cl)c3)n2)c1OC [LUSUTROMBOPAG],AC50,Adenosine receptor A1,> 30 µM
same,AC50,Androgen receptor,> 30 µM
O=C(Cc1cccs1)N[C@@H]1C(=O)N2C(C(=O)[O-])=C(C[n+]3ccccc3)CS[C@H]12 [CEPHALORIDINE],AC50,Adenosine receptor A1,> 30 µM
same,AC50,Androgen receptor,> 30 µM
same,AC50,[3],> 30 µM
CC(C)Nc1cccnc1N1CCN(C(=O)c2cc3cc(NS(C)(=O)=O)ccc3[nH]2)CC1 [DELAVIRDINE],AC50,[2],> 10 µM
Cc1cccc(C)c1NC(=O)c1cc(S(N)(=O)=O)c(Cl)cc1O [XIPAMIDE],AC50,[2],> 30 µM
CCCCCCCC/C=C\CCCCCCCC(=O)O [OLEIC ACID],AC50,[2],> 30 µM
O=c1[nH]c2ccccc2n1CCN1CCN(c2cccc(C(F)(F)F)c2)CC1 [FLIBANSERIN],AC50,[2],> 10 µM
same,AC50,Androgen receptor,> 30 µM
C#CCN(C)Cc1ccccc1 [PARGYLINE],AC50,Adenosine receptor A1,> 30 µM
same,AC50,[3],> 30 µM
CNC1(C)C2CCC(C2)C1(C)C (stereo not given) [MECAMYLAMINE],AC50,[1],> 10 µM
CC(=O)SCC(Cc1ccccc1)C(=O)NCC(=O)OCc1ccccc1 (stereo not given) [RACECADOTRIL],AC50,[1],> 10 µM
same,AC50,Estrogen receptor,> 30 µM
O=C(c1ccccc1)c1ccc2n1CCC2C(=O)O (stereo not given) [KETOROLAC],AC50,[1],> 10 µM
CC(C)(Oc1ccc(Cl)cc1)C(=O)NC(=O)NCN1CCOCC1 [PLAFIBRIDE],AC50,[2],> 30 µM
same,AC50,Androgen receptor,> 30 µM
OCCOCCN1CCN(C(c2ccccc2)c2ccc(Cl)cc2)CC1 (stereo not given) [HYDROXYZINE],AC50,[1],1.66 µM
CC(C)NCC(O)COc1ccc(CC(N)=O)cc1 (stereo not given) [ATENOLOL],AC50,Estrogen receptor,> 30 µM
COC(=O)CCc1ccc(OCC(O)CNC(C)C)cc1 (stereo not given) [ESMOLOL],AC50,[1],> 30 µM
CO[C@@]1(NC(=O)C(C(=O)O)c2ccc(O)cc2)C(=O)N2C(C(=O)O)=C(CSc3nnnn3C)CO[C@@H]21 (stereo not given in full) [MOXALACTAM],AC50,Adenosine receptor A1,> 30 µM
